Read-outs that look alike come from different tables or passages of the source.

This is an account of results in patent USRE47689E1, “Compounds for treating spinal muscular atrophy” (PTC Therapeutics, Inc., priority 2011, dated 2019).

One series deals with Smn protein. The series is described as follows: Smn protein assay in cultured cells (SMN HTRF). It counts as cell-based, human. The note with it: 48 hours; for EC1.5x (concentration giving 1.5-fold Smn protein increase): SMA Type 1 patient fibroblast cells (GM03813), 7-point concentration curve, SMN HTRF, concentration producing 1.5 times Smn protein vs DMSO vehicle control, read-out: EC1.5x for Smn protein expression; for maximum fold (Fold) increase of Smn protein: SMA patient fibroblast cells, 7-point concentration data, fold increase relative to vehicle control (SMN HTRF). Put shortly: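 Smn in SMA fibroblast lysates, measured by anti-SMN HTRF after 48 h compound exposure; EC1.5x from fold change over vehicle.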

For series [1], the system named is SMN2 minigene (full length SMN2 minigene mRNA containing SMN2 exon 7). The series is described as follows: SMN2 minigene mRNA splicing RT-qPCR assay in cultured cells. It counts as cell-based, human. The conditions noted are these: Homo sapiens, HEK293-H, read-out: EC1.5x for production of full length SMN2 mRNA. In outline: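 Lysates → one-step RT-qPCR, minigene-specific primers (0.4 μM final) + GAPDH multiplex, 40 cycles. FL/GAPDH vs DMSO; EC1.5x, star-binned.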
A general note: In qPCR the cycle at which signal appears reflects the starting amount.

Setting [2] is: HEK293H cells stably transfected with SMN2-A minigene, 24 hours, 7-point concentration curve, 1.5-fold relative to vehicle-treated cells.

For the compound `CN(C)Cc1ccc2cc(-c3cn4ccsc4n3)c(=O)oc2c1` [Compound 198, 7-[(dimethylamino)methyl]-3-(imidazo[2,1-b][1,3]thiazol-6-yl)-2H-chromen-2-one], the melting point fell in the range of 135 to 140 °C. In addition, in the series with Smn protein, the EC1.5x (concentration giving 1.5-fold Smn protein increase) was 3000 to 10000 nM; the “maximum fold (Fold) increase of Smn protein” value (“maximum fold (Fold) increase” for short) is “**** (fold increase between >1.5 and ≤1.65)”. For the same compound, the EC (1.5-fold) in series [1] (setting [2]) lay within 0.3 to 1 µM.

`CCNCCCc1ccc2cc(-c3cn4cc(C)nc(C)c4n3)c(=O)oc2c1` [Compound 926, 3-(6,8-dimethylimidazo[1,2-a]pyrazin-2-yl)-7-[3-(ethylamino)propyl]-2H-chromen-2-one] returned a melting point of 184 to 186 °C. In addition, in the series on Smn protein, the EC1.5x (concentration giving 1.5-fold Smn protein increase) is less than 300 nM; the “maximum fold (Fold) increase” value was “**** (fold increase between >1.5 and ≤1.65)”. Moreover, in series [1] (setting [2]), the EC (1.5-fold) is less than 0.1 µM.

In turn, `CC(=O)O.CC[C@H]1CN(c2ccc3cc(-c4cn5cc(C)nc(C)c5n4)c(=O)oc3c2)CCN1C` [Compound 778, 3-(6,8-dimethylimidazo [1,2-a]pyrazin-2-yl)-7-[(3S)-3-ethyl-4-methylpiperazin-1-yl]-2H-chromen-2-one acetate] came in with a melting point of 170 to 172 °C. For the same compound, in the series with Smn protein, the EC1.5x (concentration giving 1.5-fold Smn protein increase) was less than 300 nM and the “maximum fold (Fold) increase” value is “***** (fold increase >1.65)”. Moreover, the EC (1.5-fold) in series [1] (setting [2]) is less than 0.1 µM.

In turn, `C[C@H]1CN(c2ccc3cc(-c4cn5cccc(F)c5n4)c(=O)oc3c2)CCN1C` [Compound 585, 7-[(3S)-3,4-dimethylpiperazin-1-yl]-3-(8-fluoroimidazo[1,2-a]pyridin-2-yl)-2H-chromen-2-one] came in with a melting point of 188 to 192 °C. For the same compound, in the series on Smn protein, the “maximum fold (Fold) increase” value was “*** (fold increase between >1.35 and ≤1.5)”. In series [1] (setting [2]), the EC (1.5-fold) fell in the range of 0.3 to 1 µM.

In turn, `CC(C)NCc1ccc2cc(-c3nc4ccccc4s3)c(=O)oc2c1` [Compound 8, 3-(1,3-benzothiazol-2-yl)-7-[(propan-2-ylamino)methyl]-2H-chromen-2-one] registered a melting point of 164 to 168 °C. For the same compound, the “maximum fold (Fold) increase” value in the series with Smn protein is recorded as “* (maximum fold increase of ≤1.2)”. For the same compound, in series [1] (setting [2]), the EC (1.5-fold) is 1 to 3 µM.

With `C[C@@H]1CN(c2ccc3cc(-c4cn5cccnc5n4)c(=O)oc3c2)CCN1` [Compound 169, 3-(imidazo[1,2-a]pyrimidin-2-yl)-7-[(3R)-3-methylpiperazin-1-yl]-2H-chromen-2-one], the melting point is 285 to 287 °C. In the series with Smn protein, the EC1.5x (concentration giving 1.5-fold Smn protein increase) was in the range of 1000 to 3000 nM; the “maximum fold (Fold) increase” value is “*** (fold increase between >1.35 and ≤1.5)”. The EC (1.5-fold) in series [1] (setting [2]) was in the range of 0.3 to 1 µM.

In the case of `Cc1nc(Cl)cn2cc(-c3cc4ccc(N5CCCN(C)CC5)cc4oc3=O)nc12` [Cpd 712, 3-(6-chloro-8-methylimidazo[1,2-a]pyrazin-2-yl)-7-(4-methyl-1,4-diazepan-1-yl)-2H-chromen-2-one], the melting point is 212 to 218 °C. Also, the “maximum fold (Fold) increase” value with Smn protein was “** (fold increase between >1.2 and ≤1.35)”. For the same compound, the EC (1.5-fold) in series [1] (setting [2]) is less than 0.1 µM.

The compound `Cc1cn2cc(-c3cc4ccc(CCNC(CO)CO)cc4oc3=O)nc2c(C)n1` [Compound 873, 7-{2-[(1,3-dihydroxypropan-2-yl)amino]ethyl}-3-(6,8-dimethylimidazo[1,2-a]pyrazin-2-yl)-2H-chromen-2-one] had a melting point of 217 to 221 °C. Also, in the series with Smn protein, the EC1.5x (concentration giving 1.5-fold Smn protein increase) was in the range of 300 to 1000 nM; the “maximum fold (Fold) increase” value is “**** (fold increase between >1.5 and ≤1.65)”. For the same compound, the EC (1.5-fold) in series [1] (setting [2]) is less than 0.1 µM.

As to `Cn1cc(-c2cc3ccc(N4CCNCC4)cc3oc2=O)c2ccccc21` [Compound 258, 3-(1-methyl-1H-indol-3-yl)-7-(piperazin-1-yl)-2H-chromen-2-one], the melting point was in the range of 201 to 203 °C. The “maximum fold (Fold) increase” value in the series with Smn protein was “* (maximum fold increase of ≤1.2)”. Further, the EC (1.5-fold) in series [1] (setting [2]) lay in the range of 0.3 to 1 µM.

`CN1CCN(c2ccc3cc(-c4cn5ccccc5n4)c(=O)oc3c2)CC1` [Compound 72, 3-(imidazo[1,2-a]pyridin-2-yl)-7-(4-methylpiperazin-1-yl)-2H-chromen-2-one] showed a melting point of 265 to 268 °C. Besides, in the series on Smn protein, the EC1.5x (concentration giving 1.5-fold Smn protein increase) lay in the range of 300 to 1000 nM; the “maximum fold (Fold) increase” value was “*** (fold increase between >1.35 and ≤1.5)”. The EC (1.5-fold) in series [1] (setting [2]) lay in the range of 0.3 to 1 µM.

Take `Cc1cc(Cl)c2nc(-c3cc4ccc(N5CCN(C)CC5)cc4oc3=O)cn2c1` [Compound 343, 3-(8-chloro-6-methylimidazo[1,2-a]pyridin-2-yl)-7-(4-methylpiperazin-1-yl)-2H-chromen-2-one]: the melting point fell in the range of 245 to 253 °C. In addition, the “maximum fold (Fold) increase” value in the series on Smn protein is “* (maximum fold increase of ≤1.2)”. Further, the EC (1.5-fold) in series [1] (setting [2]) lay within 0.1 to 0.3 µM.

The compound `Cc1ccn2cc(-c3cc4ccc(N5C[C@@H](C)N[C@@H](C)C5)cc4oc3=O)nc2c1` [Compound 133, 7-[(3R,5S)-3,5-dimethylpiperazin-1-yl]-3-(7-methylimidazo[1,2-a]pyridin-2-yl)-2H-chromen-2-one] gave a melting point of 210 to 217 °C. In addition, in the series on Smn protein, the EC1.5x (concentration giving 1.5-fold Smn protein increase) fell in the range of 3000 to 10000 nM; the “maximum fold (Fold) increase” value is “*** (fold increase between >1.35 and ≤1.5)”. The EC (1.5-fold) in series [1] (setting [2]) was in the range of 0.1 to 0.3 µM.

In turn, `C[C@@H]1CN(c2ccc3cc(-c4cc5ccccc5s4)c(=O)oc3c2)CCN1` [Compound 409, 3-(1-benzothiophen-2-yl)-7-[(3R)-3-methylpiperazin-1-yl]-2H-chromen-2-one] gave a melting point of 264 to 266 °C. Further, the “maximum fold (Fold) increase” value in the series with Smn protein is listed as “* (maximum fold increase of ≤1.2)”. Further, the EC (1.5-fold) in series [1] (setting [2]) lay in the range of 1 to 3 µM.

As for `COc1ccc(-c2cc3c(F)cc(N4CCN[C@@H](C)C4)cc3oc2=O)cc1OC` [Compound 464, 3-(3,4-dimethoxyphenyl)-5-fluoro-7-[(3S)-3-methylpiperazin-1-yl]-2H-chromen-2-one], the melting point was 118 to 120 °C. In addition, the “maximum fold (Fold) increase” value with Smn protein was “*** (fold increase between >1.35 and ≤1.5)”. Further, the EC (1.5-fold) in series [1] (setting [2]) is 0.1 to 0.3 µM.

`Cc1cccn2cc(-c3cc4ccc(N5C[C@@H](C)N[C@@H](C)C5)cc4oc3=O)nc12` [Compound 136, 7-[(3R,5S)-3,5-dimethylpiperazin-1-yl]-3-(8-methylimidazo[1,2-a]pyridin-2-yl)-2H-chromen-2-one] had a melting point of 243 to 246 °C. Further, the “maximum fold (Fold) increase” value in the series with Smn protein is “** (fold increase between >1.2 and ≤1.35)”. The EC (1.5-fold) in series [1] (setting [2]) is 1 to 3 µM.

Compound `O=c1oc2cc(N3CCNCC3)ccc2cc1Nc1ccccc1` [Compound 75, 3-(phenylamino)-7-(piperazin-1-yl)-2H-chromen-2-one] returned a melting point of 140 to 143 °C. Also, the “maximum fold (Fold) increase” value in the series on Smn protein is recorded as “* (maximum fold increase of ≤1.2)”. The EC (1.5-fold) in series [1] (24 h) was in the range of 3 to 30 µM.

In the case of `CN1CCN(c2ccc3cc(-c4nc5c(Cl)cccc5s4)c(=O)oc3c2)CC1` [Compound 17, 3-(4-chloro-1,3-benzothiazol-2-yl)-7-(4-methylpiperazin-1-yl)-2H-chromen-2-one], the melting point was in the range of 256 to 260 °C. Also, the “maximum fold (Fold) increase” value with Smn protein was “** (fold increase between >1.2 and ≤1.35)”. Also, the EC (1.5-fold) in series [1] (setting [2]) is 0.3 to 1 µM.

Compound `Cc1cc(C)c2nc(-c3cc4ccc(N5CCN(C)CC5)cc4oc3=O)cn2c1` [Compound 261, 3-(6,8-dimethylimidazo[1,2-a]pyridin-2-yl)-7-(4-methylpiperazin-1-yl)-2H-chromen-2-one] showed a melting point of 232 to 238 °C. Further, the “maximum fold (Fold) increase” value in the series on Smn protein was “** (fold increase between >1.2 and ≤1.35)”. Also, the EC (1.5-fold) in series [1] (setting [2]) fell in the range of 0.3 to 1 µM.

Regarding `C[C@@H]1CN(c2ccc3cc(-c4cn(-c5ccccc5)cn4)c(=O)oc3c2)C[C@H](C)N1` [Cpd 452, 7-[(3R,5S)-3,5-dimethylpiperazin-1-yl]-3-(1-phenyl-1H-imidazol-4-yl)-2H-chromen-2-one], the melting point was in the range of 260 to 264 °C. Also, the “maximum fold (Fold) increase” value with Smn protein is “* (maximum fold increase of ≤1.2)”. The EC (1.5-fold) in series [1] (setting [2]) fell in the range of 3 to 30 µM.

`Cc1cn2cc(-c3cc4ccc(N5CCCNCC5)cc4oc3=O)cc2cn1` [Compound 638, 7-(1,4-diazepan-1-yl)-3-(3-methylpyrrolo[1,2-a]pyrazin-7-yl)-2H-chromen-2-one] registered a melting point of 178 to 181 °C. For the same compound, in the series on Smn protein, the EC1.5x (concentration giving 1.5-fold Smn protein increase) is less than 300 nM; the “maximum fold (Fold) increase” value is “**** (fold increase between >1.5 and ≤1.65)”. For the same compound, in series [1] (setting [2]), the EC (1.5-fold) was less than 0.1 µM.

`C[C@H]1CN(c2ccc3cc(-c4cn5cccc(F)c5n4)c(=O)oc3c2)CCN1` [Compound 525, 3-(8-fluoroimidazo[1,2-a]pyridin-2-yl)-7-[(3S)-3-methylpiperazin-1-yl]-2H-chromen-2-one] yielded a melting point of 190 to 193 °C. Besides, the “maximum fold (Fold) increase” value with Smn protein is “*** (fold increase between >1.35 and ≤1.5)”. In series [1] (setting [2]), the EC (1.5-fold) was in the range of 0.1 to 0.3 µM.

The melting point is the temperature, or range, at which the solid turns liquid.
